Patent US9034391B2, “Compositions with enhanced bioavailability and fast acting inhibitor or gastric acid secretion” (YALE UNIVERSITY, priority 2006, dated 2015)
“And” between values parts separate entries of the source, which are not always exact repeats. Identical values can stand only once. “Also recorded” adds a separate entry of the source.

Columns and labels:
[1] = biological target: T1, H+,K+-ATPase (Rattus norvegicus, UniProt P09626); test: Intracellular pH recovery in rat corpus glands (fundus/corpus comparison); assay type: cell-based; conditions: corpus glands
T1 construct: Individual glands were isolated using a hand-dissection technique as described previously; from tissue; host or cells: hand-dissected rat gastric glands (corpus and antrum), parietal cells
Description: Molecular Probes, OR USA)) for 15 minutes. […] Measurements were performed in the epifluorescence mode with 60×/0.80 and 40×/0.90 objectives. […] Data points were acquired every 15 s. […] Acid extrusion was monitored in the absence of bicarbonate. […] All data are summarized as mean±S.E. Significance was determined using the one-way ANOVA test with p<0.05 considered to be statistically significant. All chemicals used were obtained from Sigma and Molecular Probes.

[2] = biological target: T2, fundic H+,K+-ATPase (Rattus norvegicus, UniProt P09626); test: Intracellular pH recovery in isolated rat fundic (F1) glands; assay type: cell-based; conditions: for effect on fundic (F1) acid secretion (in words): histamine 100 μM
T2 construct: Glands adjacent to the esophageal junction were hand dissected; from tissue; host or cells: hand-dissected fundic glands of Sprague Dawley rat stomach, next to the esophageal junction
Description: Male Sprague Dawley rats weighing 200-300 g were housed in climate and humidity controlled, light cycled rooms and fed standard chow with free access to water. Prior to experiments, animals were fasted while allowing free access to water for 18-24 hours to reduce basal acid secretion. Following isoflurane anesthesia the animals were sacrificed, an abdominal incision was made exposing the stomach. After isolating the esophagus and duodenal junctures a total gastrectomy was performed with 1-2 cm of esophagus remaining attached to the gastrectomy. We included the esophageal juncture to have a common landmark for all fundic isolations. While holding the esophagus with forceps approximately 3 mm of fundus was removed with 5 mm of the intact esophagus.
The removed fundic tissue was placed in ice cold HEPES-buffered Ringer-solution (pH adjusted to 7.4 at 4° C.) and transferred to the stage of a dissection microscope. The fundic glands were visualized under the microscope at 50× magnification. Glands adjacent to the esophageal junction were hand dissected. […]
Using the same protocol that we developed for isolated corpus gland perfusion^20a, 21a individual fundic glands were loaded with a […] of the pH sensitive dye (BCECF, (2′7-bis(2-carbocyethal)-5-(and 6)-carboxyflurorescein-acetomethylester; Molecular Probes, OR USA)) for 15 minutes. […] Acid extrusion was monitored in the absence of bicarbonate. […] Intracellular pH recovery rates (H^+, K^+-ATPase activity) were measured in Na^+ free HEPES solutions containing: 1) 100 μM histamine 2) 100 μM pentagastrin. […]
The recovery rates are expressed as the ΔpHi/min, and were calculated over the pH range of 6.5-6.9.
Activation of acid secretion via histamine, acetylcholine or pentagastrin was induced by preincubation of the glands for 15 min before the experiment combined with BCECF (100 μM) loading. All data are summarized as mean±S.E. Significance was determined using the one-way ANOVA test with p<0.05 considered to be statistically significant. […]

[3] = biological target: H+,K+-ATPase (Homo sapiens, UniProt P20648); conditions: human gastric glands
Description: The human tissue was transferred from the OR in a HEPES-buffered Ringer solution. The tissue was stored on ice and immediately the isolated glands were dissected as described above.
Isolated gastric glands were incubated in a HEPES-buffered Ringer's solution containing either 10 μmol of the pH-sensitive dye BCECF-AM (2′,7′)-bis-(2-carboxyethyl)-5-(and -6)-carboxy-fluorescin, aceto-methyl ester (Molecular Probes, Eugene, Oreg.) for 10 minutes as described previously^37-39. Following dye-loading the chamber was flushed with a HEPES solution to remove all non-de-esterified dye. The perfusion chamber was mounted on the stage of an inverted microscope (Olympus IX50), which was used in the epifluorescence mode with a 40× objective. BCECF was successively excited at 440 nm and 490 nm from a monochromator light source, and the resultant fluorescent signal was monitored at 535 nm using an intensified charge-coupled device camera. Individual regions of interest were outlined and simultaneously monitored every 15 sec. during the course of the experiment. A minimum of 8 cells or regions was selected per gland.
Proton extrusion by individual parietal cells was monitored by observing recovery of pHi after acid loading the cells with Na^+ free HEPES solution containing 20 mM NH4C1. Parietal cells were subsequently superfused with Na^+ free HEPES, which abolished all Na^+/H^+ Exchanger (NHE) activity, trapping H^+ within the cytosol and initiating an immediate drop in pHi. […]
The intensity ratio data (490/440) were converted to pH values using the high K^+/nigericin calibration technique^40. Intracellular pH recovery rates were calculated from the same initial starting pH to eliminate the potential variation in the individual intracellular buffering power of the cells under the different experimental conditions. […] The recovery rates are expressed as the ΔpH/min, and were calculated over the pH range of 6.5-6.8. […] All data were summarized as means±SE and were analysed by grouping measurements at baseline values.

[4] = biological target: T1, H+,K+-ATPase; test: Intracellular pH recovery (BCECF, NH4Cl prepulse) in isolated rat gastric glands; assay type: cell-based
From the text: Following removal of the stomach, the stomach was opened longitudinally and the corpus and antrum isolated and sliced into 0.5 cm square sections, and washed with cold Ringer solution to remove residual food particles. The tissues were transferred to the stage of a dissecting microscope. Individual glands were isolated using a hand-dissection technique as described previously^36. Following isolation, individual isolated glands were allowed to adhere to cover slips that had been pre-coated with Cell-Tak (Collaborative Research, Bedford, Mass.) and were transferred to the stage of an inverted microscope.
Isolated gastric glands were incubated in a HEPES-buffered Ringer's solution containing either 10 μmol of the pH-sensitive dye BCECF-AM (2′,7′)-bis-(2-carboxyethyl)-5-(and -6)-carboxy-fluorescin, aceto-methyl ester (Molecular Probes, Eugene, Oreg.) for 10 minutes as described previously^37-39. […] A minimum of 8 cells or regions was selected per gland.
Proton extrusion by individual parietal cells was monitored by observing recovery of pHi after acid loading the cells with Na^+ free HEPES solution containing 20 mM NH4C1.
The recovery rates are expressed as the ΔpH/min, and were calculated over the pH range of 6.5-6.8.

[5] = tested on: gastric acid secretion in freshly isolated rat whole stomach; test: Whole stomach pH measurements, ex vivo rat whole stomach preparation
Description: Before the experiments animals were fasted for 24 h to reduce basal acid secretion to a consistent minimum. Animals were killed with an overdose of isoflurane and an abdominal incision was made. The stomach was ligated at the duodenal and esophageal junction and excised. Then 1 ml of non buffered, isotonic saline (140 mM) was infused into the lumen of the stomach. […] The stomachs were then placed in either oxygenated HEPES-buffered Ringer solution or in the same solution containing 100 μM histamine alone or additionally 300 μM ZnCl2 (pH 7.4) and maintained at 37° C. After 1 hour the stomach contents were aspirated and the pH was recorded.

[6] = tested on: histamine induced acid secretion; test: Oral zinc supplementation in rats, histamine induced proton extrusion of isolated glands; assay type: in vivo, rat
From the text: Following dye-loading the chamber was flushed with a HEPES solution to remove all non-de-esterified dye. The perfusion chamber was mounted on the stage of an inverted microscope (Olympus IX50), which was used in the epifluorescence mode with a 40× objective. BCECF was successively excited at 440 nm and 490 nm from a monochromator light source, and the resultant fluorescent signal was monitored at 535 nm using an intensified charge-coupled device camera. Individual regions of interest were outlined and simultaneously monitored every 15 sec. during the course of the experiment. A minimum of 8 cells or regions was selected per gland.
Proton extrusion by individual parietal cells was monitored by observing recovery of pHi after acid loading the cells with Na^+ free HEPES solution containing 20 mM NH4C1. Parietal cells were subsequently superfused with Na^+ free HEPES, which abolished all Na^+/H^+ Exchanger (NHE) activity, trapping H^+ within the cytosol and initiating an immediate drop in pHi. Under these conditions, the only potential H^+ extrusion pathway is via the H^+,K^+-ATPase activation.
The intensity ratio data (490/440) were converted to pH values using the high K^+/nigericin calibration technique^40. Intracellular pH recovery rates were calculated from the same initial starting pH to eliminate the potential variation in the individual intracellular buffering power of the cells under the different experimental conditions. All data including the individual images for all wavelengths were recorded to the hard disk which allowed us to return to the individual images after the experiment for further analysis. The recovery rates are expressed as the ΔpH/min, and were calculated over the pH range of 6.5-6.8. All chemicals were obtained from Sigma and Molecular Probes. All data were summarized as means±SE and were analysed by grouping measurements at baseline values.

Sequence of H+,K+-ATPase (Homo sapiens, UniProt P20648) (P20648 whole entry): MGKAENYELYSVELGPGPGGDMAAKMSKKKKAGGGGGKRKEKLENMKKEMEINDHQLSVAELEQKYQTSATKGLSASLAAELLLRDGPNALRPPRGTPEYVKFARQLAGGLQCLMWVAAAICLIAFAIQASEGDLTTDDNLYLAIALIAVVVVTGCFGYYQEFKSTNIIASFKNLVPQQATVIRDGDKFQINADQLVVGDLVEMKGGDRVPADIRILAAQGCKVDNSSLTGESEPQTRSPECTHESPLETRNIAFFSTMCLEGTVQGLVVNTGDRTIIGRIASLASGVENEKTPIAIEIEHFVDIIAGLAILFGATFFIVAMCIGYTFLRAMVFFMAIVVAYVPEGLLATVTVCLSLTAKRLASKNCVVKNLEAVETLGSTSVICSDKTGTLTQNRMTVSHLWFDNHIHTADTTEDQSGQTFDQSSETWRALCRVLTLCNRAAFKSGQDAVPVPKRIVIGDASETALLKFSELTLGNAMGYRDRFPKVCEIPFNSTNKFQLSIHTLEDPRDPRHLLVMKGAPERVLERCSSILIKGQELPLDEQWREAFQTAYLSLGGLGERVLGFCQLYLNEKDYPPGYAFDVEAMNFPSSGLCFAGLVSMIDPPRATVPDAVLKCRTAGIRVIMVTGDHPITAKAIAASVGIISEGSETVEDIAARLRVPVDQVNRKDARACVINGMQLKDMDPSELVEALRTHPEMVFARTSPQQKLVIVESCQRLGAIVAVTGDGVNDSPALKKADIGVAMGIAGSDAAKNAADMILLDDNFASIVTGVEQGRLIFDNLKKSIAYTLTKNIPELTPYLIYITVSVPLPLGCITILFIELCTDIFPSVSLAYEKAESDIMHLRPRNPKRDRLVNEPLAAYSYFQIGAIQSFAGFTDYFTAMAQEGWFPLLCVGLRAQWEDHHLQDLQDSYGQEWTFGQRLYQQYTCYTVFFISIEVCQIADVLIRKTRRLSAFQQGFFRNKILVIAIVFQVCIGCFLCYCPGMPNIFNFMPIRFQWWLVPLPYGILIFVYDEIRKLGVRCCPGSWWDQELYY
Sequence of H+,K+-ATPase (Homo sapiens, UniProt P20648) (P51164 whole entry partner): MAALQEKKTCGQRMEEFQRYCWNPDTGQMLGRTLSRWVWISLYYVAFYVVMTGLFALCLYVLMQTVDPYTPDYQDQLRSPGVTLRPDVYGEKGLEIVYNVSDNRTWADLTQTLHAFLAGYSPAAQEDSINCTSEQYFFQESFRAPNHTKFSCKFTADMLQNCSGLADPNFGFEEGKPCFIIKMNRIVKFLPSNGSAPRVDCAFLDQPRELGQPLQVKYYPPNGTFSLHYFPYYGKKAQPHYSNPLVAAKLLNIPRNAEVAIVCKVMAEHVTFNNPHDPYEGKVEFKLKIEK
T2 sequence (P09626 whole entry): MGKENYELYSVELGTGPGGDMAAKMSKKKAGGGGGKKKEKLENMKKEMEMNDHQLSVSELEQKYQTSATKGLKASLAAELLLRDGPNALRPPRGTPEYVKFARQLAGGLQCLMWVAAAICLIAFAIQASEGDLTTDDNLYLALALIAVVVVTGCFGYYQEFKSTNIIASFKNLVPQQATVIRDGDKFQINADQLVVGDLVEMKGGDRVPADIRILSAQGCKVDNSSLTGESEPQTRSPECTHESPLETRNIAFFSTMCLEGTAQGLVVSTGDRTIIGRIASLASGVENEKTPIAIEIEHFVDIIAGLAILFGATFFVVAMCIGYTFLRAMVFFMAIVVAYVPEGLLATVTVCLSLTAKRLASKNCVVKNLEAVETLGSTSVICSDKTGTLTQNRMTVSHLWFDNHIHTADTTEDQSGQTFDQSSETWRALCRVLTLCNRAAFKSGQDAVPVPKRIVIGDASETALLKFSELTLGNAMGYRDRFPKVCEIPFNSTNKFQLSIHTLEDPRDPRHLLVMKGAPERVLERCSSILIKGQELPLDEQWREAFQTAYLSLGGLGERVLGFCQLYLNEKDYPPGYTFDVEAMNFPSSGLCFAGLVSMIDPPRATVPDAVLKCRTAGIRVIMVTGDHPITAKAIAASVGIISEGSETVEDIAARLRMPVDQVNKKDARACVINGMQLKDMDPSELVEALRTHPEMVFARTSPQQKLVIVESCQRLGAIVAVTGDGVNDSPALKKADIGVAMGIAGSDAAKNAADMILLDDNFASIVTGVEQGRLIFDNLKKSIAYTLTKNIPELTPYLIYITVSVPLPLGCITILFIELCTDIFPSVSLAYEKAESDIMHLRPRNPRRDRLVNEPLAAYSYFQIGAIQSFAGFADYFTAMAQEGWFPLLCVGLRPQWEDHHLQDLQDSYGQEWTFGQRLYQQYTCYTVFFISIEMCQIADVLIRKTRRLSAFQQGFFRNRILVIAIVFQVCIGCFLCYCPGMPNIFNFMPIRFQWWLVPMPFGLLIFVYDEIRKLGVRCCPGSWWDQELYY
T2 sequence (P18598 whole entry partner): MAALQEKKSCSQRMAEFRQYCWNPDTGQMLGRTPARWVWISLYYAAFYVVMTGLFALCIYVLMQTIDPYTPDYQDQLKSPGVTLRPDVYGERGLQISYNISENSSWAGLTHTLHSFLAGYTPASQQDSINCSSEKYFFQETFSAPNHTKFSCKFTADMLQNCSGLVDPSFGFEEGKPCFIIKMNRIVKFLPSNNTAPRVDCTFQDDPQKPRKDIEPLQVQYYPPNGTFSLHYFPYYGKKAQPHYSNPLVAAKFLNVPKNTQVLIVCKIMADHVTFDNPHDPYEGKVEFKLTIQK
T1 sequence (P09626 whole entry): as the sequence (P09626 whole entry) above
T1 sequence (P18598 whole entry partner): as the sequence (P18598 whole entry partner) above

Row | Structure (SMILES) | effect on corpus acid secretion (in words) [1] | effect on fundic (F1) acid secretion (in words) [2] | effect on histamine stimulated proton efflux (in words) ([3]; histamine 100 μM, ZnCl2 300 μM) | inhibition of proton extrusion ([4]; 300 μM ZnCl2, compared to the histamine (100 μM) induced rate) [%] | onset of inhibition of histamine induced acid secretion ([4]; ZnCl2 300 μM added to superfusion bath during alkalinization, histamine 100 μM) | reversibility of inhibition after removal of ZnCl2 ([4]; ZnCl2 300 μM, histamine 100 μM) | effect on histamine induced acid secretion (in words) ([4]; rat gastric glands, histamine 100 μM, ZnCl2 25-300 μM) | luminal pH ([5]; 100 μM histamine and 300 μM ZnCl2, 1 hour) | luminal pH compared with histamine alone (in words) ([5]; 100 μmol histamine and 300 μmol ZnCl2) | histamine induced proton extrusion rate after oral ZnCl2 ([6]; 0.05 mg/kg/d ZnCl2 in drinking water for 5 days) | histamine induced proton extrusion rate after oral ZnCl2 ([6]; 150 mg/kg/d ZnCl2 in drinking water for 5 days) | proton efflux under histamine stimulation (in words) ([3]; histamine alone) | F1 gland alkalinization rate ([2]; 100 μM secretagogue alone) | recovery rate (proton extrusion) of histamine stimulated parietal cells ([6]; control group with histamine alone, no ZnCl2)
1 | Cc1cccc(C)c1CNc1cc(C(=O)NCCO)cn2c(C)c(C)nc12 [AZD0865] | effectively inhibits acid secretion | does not completely inhibit proton extrusion |  |  |  |  |  |  |  |  |  |  |  | 
2 | [Cl-].[Cl-].[Zn+2] [ZnCl2, zinc chloride] |  |  | blocked; also recorded: abolished | 98 | a few seconds | increase of the intracellular pH continued; also recorded: returns to normal levels | blocked; also recorded: dose dependent manner | 4.54±0.065 | higher pH | 0.034±0.0036 ΔpH/min | 0.022±0.0045 ΔpH/min |  |  | 
3 | NCCc1c[nH]cn1 [histamine] |  | no effect |  |  |  |  |  |  |  |  |  | robust proton efflux | 0.042±0.007 ΔpHi/min and 0.040±0.0079 ΔpHi/min | 0.051±0.004 ΔpH/min
